{"source": "ChEMBL document CHEMBL5390228", "about": "“Unnatural Endotype B PPAPs as Novel Compounds with Activity against Mycobacterium tuberculosis” (J Med Chem, 2023)", "key": {"[1]": {"molecular_target": "T1, Nuclear receptor subfamily 1 group I member 2 (Homo sapiens, UniProt O75469)", "T1 sequence (O75469 whole entry)": "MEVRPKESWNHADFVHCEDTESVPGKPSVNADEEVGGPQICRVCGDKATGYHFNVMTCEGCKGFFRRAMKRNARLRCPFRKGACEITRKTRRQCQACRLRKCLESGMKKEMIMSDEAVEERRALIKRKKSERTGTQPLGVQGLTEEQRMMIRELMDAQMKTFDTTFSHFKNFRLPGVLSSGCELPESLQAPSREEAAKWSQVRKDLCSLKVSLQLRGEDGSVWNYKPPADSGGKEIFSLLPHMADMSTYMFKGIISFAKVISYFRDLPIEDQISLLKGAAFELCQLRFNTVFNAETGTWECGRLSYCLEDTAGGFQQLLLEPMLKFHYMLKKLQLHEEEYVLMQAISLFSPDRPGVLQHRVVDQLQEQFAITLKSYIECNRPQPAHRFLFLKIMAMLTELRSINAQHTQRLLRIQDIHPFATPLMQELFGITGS", "assay": "Activation of GAL4-DBD fused human PXR LBD expressed in human HepG2 cells co-expressing GAL4-responsive UAS-driven firefly luciferase and renilla luciferase assessed as increase in luciferase activity at 1 to 20 uM incubated for 24 hrs by Dual-Glo luciferase assay relative to control", "format": "cell-based", "settings": "hepg2, 24 h, dose 1-20 µM"}, "[2]": {"molecular_target": "T2, Cytochrome P450 2C8 (Homo sapiens, UniProt P10632)", "T2 sequence (P10632 whole entry)": "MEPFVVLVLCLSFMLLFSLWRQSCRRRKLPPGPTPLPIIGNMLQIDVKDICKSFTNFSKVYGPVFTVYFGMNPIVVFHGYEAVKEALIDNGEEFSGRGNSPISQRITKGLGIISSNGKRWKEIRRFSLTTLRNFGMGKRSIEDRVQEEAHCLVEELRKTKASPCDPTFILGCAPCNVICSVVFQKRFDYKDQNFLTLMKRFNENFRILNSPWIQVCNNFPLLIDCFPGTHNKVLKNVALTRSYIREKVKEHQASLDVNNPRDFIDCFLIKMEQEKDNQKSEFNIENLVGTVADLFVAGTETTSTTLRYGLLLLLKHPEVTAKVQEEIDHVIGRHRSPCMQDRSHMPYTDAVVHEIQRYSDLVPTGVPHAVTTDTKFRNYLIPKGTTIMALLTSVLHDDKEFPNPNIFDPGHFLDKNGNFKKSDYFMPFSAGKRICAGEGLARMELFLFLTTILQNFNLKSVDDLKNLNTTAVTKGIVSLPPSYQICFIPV", "assay": "Induction of CYP2C8 activity in human HepaRG cells at 10 uM incubated for 96 hrs by liquid chromatography with tandem mass spectrometry-based substrate cocktail assay", "format": "ADME, cell-based"}, "[3]": {"tested_on": "Mycobacterium tuberculosis", "assay": "Antimicrobial activity in Mycobacterium tuberculosis H37Rv ATCC 27294 assessed as reduction in metabolic activity by measuring incorporation radioactively labeled [3H] uracil into live bacilli preincubated for 72 hrs followed by [3H] uracil addition and measured after 18 hrs by beta-counter analysis", "format": "functional, organism-based", "settings": "for Activity: time 90.0 hrs"}, "[4]": {"tested_on": "Mycobacterium tuberculosis", "assay": "Antimicrobial activity in Mycobacterium tuberculosis H37Rv ATCC 27294 infected in human Primary macrophage cells assessed as reduction in intracellular growth of bacteria incubated for 4 days by CFU assay", "format": "functional, organism-based", "settings": "H37Rv ATCC 27294, Primary macrophage, 96 h"}, "[5]": {"tested_on": "Mycobacterium tuberculosis", "assay": "Antimicrobial activity in Mycobacterium tuberculosis expressing mCherry infected in human Primary macrophage cells assessed as reduction in number of intracellular bacilli at 7.5 uM by DAPI staining based Confocal laser scanning microscopy", "format": "functional, organism-based"}, "[6]": {"molecular_target": "T3, Cytochrome P450 1A2 (Homo sapiens, UniProt P05177)", "T3 sequence (P05177 whole entry)": "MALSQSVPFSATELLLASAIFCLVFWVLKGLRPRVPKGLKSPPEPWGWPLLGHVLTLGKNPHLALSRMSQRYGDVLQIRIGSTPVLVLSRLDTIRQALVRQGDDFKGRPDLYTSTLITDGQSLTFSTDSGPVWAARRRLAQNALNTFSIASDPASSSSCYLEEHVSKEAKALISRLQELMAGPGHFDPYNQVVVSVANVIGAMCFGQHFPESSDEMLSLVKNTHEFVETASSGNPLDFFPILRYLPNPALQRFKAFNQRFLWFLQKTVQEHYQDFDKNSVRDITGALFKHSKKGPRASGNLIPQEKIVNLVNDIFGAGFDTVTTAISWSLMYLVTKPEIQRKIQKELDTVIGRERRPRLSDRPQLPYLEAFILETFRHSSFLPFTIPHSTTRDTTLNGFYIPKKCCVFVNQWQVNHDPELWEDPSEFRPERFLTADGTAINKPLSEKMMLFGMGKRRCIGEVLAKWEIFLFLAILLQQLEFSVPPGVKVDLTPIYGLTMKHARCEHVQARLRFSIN", "assay": "Induction of CYP1A2 activity in human HepaRG cells at 5 to 10 uM incubated for 96 hrs by liquid chromatography with tandem mass spectrometry-based substrate cocktail assay", "format": "ADME, cell-based", "settings": "dose 5-10 µM"}, "[7]": {"tested_on": "HepG2", "assay": "Cytotoxicity against human HepG2 cells assessed as fold reduction in cell viability upto 20 uM incubated for 96 hrs by alamarBlue Cell Viability assay relative to control", "format": "toxicity, cell-based", "settings": "hepg2, 96 h"}, "[8]": {"tested_on": "A549", "assay": "Cytotoxicity against human A549 cells assessed as reduction in cell viability at 2.5 to 75 uM incubated for 48 hrs by resazurin reagent based fluorescence assay", "format": "toxicity", "settings": "a549, 48 h, dose 2.5-75 µM"}, "[9]": {"molecular_target": "Cytochrome P450 2C9 (Homo sapiens, UniProt P11712)", "sequence (P11712 whole entry)": "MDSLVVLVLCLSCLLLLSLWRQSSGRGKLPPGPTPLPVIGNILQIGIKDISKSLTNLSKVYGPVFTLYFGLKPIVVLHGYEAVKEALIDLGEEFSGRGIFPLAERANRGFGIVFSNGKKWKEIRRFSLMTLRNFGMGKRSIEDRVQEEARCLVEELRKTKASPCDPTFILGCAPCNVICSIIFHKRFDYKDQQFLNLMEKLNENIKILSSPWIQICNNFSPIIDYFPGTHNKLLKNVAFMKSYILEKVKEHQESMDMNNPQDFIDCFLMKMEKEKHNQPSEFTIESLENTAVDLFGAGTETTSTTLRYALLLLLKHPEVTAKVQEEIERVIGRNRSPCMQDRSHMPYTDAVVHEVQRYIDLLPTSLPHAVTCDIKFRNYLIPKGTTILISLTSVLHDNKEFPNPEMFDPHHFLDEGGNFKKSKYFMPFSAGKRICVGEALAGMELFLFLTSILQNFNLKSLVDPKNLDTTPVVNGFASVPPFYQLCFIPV", "assay": "Induction of CYP2C9 activity in human HepaRG cells at 5 to 10 uM incubated for 96 hrs by liquid chromatography with tandem mass spectrometry-based substrate cocktail assay", "format": "ADME, cell-based", "settings": "dose 5-10 µM"}, "[10]": {"tested_on": "PBMC", "assay": "Cytotoxicity against human PBMC cells assessed as reduction in cell viability at 2.5 to 75 uM incubated for 18 hrs by PrestoBlue reagent based fluorescence assay", "format": "toxicity", "settings": "dose 2.5-75 µM"}, "[11]": {"assay": "Induction of CYP3A4 protein expression in human HepaRG cells at 1 to 20 uM incubated for 24 hrs by targeted mass spectrometry-based immunoassay"}, "[12]": {"tested_on": "Macrophage", "assay": "Cytotoxicity against human Primary macrophage cells assessed as reduction in cell viability at 2.5 to 75 uM incubated for 18 hrs by PrestoBlue reagent based fluorescence assay", "format": "toxicity", "settings": "dose 2.5-75 µM"}, "[13]": {"molecular_target": "Cytochrome P450 2C19 (Homo sapiens, UniProt P33261)", "sequence (P33261 whole entry)": "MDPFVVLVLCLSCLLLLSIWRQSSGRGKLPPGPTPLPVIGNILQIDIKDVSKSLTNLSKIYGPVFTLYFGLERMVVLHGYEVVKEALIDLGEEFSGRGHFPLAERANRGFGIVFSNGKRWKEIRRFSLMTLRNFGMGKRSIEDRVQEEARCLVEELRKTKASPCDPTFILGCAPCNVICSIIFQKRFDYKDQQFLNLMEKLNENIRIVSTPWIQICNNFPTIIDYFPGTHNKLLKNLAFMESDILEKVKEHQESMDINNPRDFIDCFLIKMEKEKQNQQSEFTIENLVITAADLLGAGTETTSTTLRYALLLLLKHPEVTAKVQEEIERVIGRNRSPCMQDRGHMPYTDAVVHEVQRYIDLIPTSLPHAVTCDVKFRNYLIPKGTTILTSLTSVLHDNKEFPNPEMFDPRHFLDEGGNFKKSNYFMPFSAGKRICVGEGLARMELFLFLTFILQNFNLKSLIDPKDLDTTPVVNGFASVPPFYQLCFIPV", "assay": "Induction of CYP2C19 activity in human HepaRG cells at 5 to 10 uM incubated for 96 hrs by liquid chromatography with tandem mass spectrometry-based substrate cocktail assay", "format": "ADME, cell-based", "settings": "dose 5-10 µM"}, "[14]": {"tested_on": "HepaRG", "assay": "Cytotoxicity against human HepaRG cells assessed as reduction in cell viability at 60 uM incubated for 24 hrs by WST-1 assay", "format": "toxicity, cell-based"}, "[15]": {"assay": "Induction of CYP3A4 mRNA expression in human HepaRG cells at 1 to 20 uM incubated for 24 hrs by RT-qPCR analysis"}, "[16]": {"molecular_target": "T1, Nuclear receptor subfamily 1 group I member 2", "assay": "Transactivation of human PXR in human HepG2 cells coexpressing firefly luciferase gene under control of CYP3A4 promoter and renilla luciferase assessed as increase in luciferase activity at 1 to 20 uM incubated for 48 hrs by Dual-Glo luciferase assay", "settings": "hepg2, 48 h"}, "[17]": {"molecular_target": "T2, Cytochrome P450 2C8", "assay": "Induction of CYP2C8 activity in human HepaRG cells at 5 to 10 uM incubated for 96 hrs by liquid chromatography with tandem mass spectrometry-based substrate cocktail assay", "format": "ADME, cell-based", "settings": "dose 5-10 µM"}, "[18]": {"molecular_target": "T4, Cytochrome P450 2B6 (Homo sapiens, UniProt P20813)", "T4 sequence (P20813 whole entry)": "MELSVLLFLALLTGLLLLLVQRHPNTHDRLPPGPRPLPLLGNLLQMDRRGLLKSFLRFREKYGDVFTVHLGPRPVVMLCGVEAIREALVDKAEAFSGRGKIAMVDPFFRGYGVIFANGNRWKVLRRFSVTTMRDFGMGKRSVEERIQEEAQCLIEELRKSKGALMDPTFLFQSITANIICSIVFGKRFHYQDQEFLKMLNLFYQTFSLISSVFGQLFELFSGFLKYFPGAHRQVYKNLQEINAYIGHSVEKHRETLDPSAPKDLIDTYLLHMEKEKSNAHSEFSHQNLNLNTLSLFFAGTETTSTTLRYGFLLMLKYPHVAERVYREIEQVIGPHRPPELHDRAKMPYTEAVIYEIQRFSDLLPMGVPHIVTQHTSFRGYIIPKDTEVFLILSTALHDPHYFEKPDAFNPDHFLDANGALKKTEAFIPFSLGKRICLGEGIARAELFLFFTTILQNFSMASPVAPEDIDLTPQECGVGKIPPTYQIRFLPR", "assay": "Induction of CYP2B6 activity in human HepaRG cells at 5 to 10 uM incubated for 96 hrs by liquid chromatography with tandem mass spectrometry-based substrate cocktail assay", "format": "ADME, cell-based", "settings": "dose 5-10 µM"}, "[19]": {"molecular_target": "Cytochrome P450 3A4 (Homo sapiens, UniProt P08684)", "sequence (P08684 whole entry)": "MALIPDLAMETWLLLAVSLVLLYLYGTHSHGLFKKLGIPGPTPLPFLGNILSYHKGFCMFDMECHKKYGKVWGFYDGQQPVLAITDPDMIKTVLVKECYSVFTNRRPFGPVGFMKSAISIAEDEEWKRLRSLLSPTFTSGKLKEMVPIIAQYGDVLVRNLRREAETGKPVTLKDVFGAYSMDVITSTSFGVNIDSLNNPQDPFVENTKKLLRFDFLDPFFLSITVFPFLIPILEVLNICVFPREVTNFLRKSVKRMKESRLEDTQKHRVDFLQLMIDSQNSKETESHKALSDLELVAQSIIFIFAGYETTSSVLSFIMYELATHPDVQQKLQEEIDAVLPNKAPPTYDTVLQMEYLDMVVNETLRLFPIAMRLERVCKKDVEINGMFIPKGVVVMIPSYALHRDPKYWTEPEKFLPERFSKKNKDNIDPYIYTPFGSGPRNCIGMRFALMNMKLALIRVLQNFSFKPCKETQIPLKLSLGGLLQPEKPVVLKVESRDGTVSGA", "assay": "Induction of CYP3A4 activity in human HepaRG cells at 5 to 10 uM incubated for 96 hrs by liquid chromatography with tandem mass spectrometry-based substrate cocktail assay", "format": "ADME, cell-based", "settings": "dose 5-10 µM"}, "[20]": {"tested_on": "HepG2", "assay": "Cytotoxicity against human HepG2 cells assessed as reduction in cell viability at 10 to 20 uM incubated for 48 hrs by WST-1 assay", "format": "toxicity, cell-based", "settings": "hepg2, 48 h, dose 10-20 µM"}}, "note": "The source made the active and inactive calls. No cut-off for these calls is given here."}
{"smiles": "CO[C@H]1/C=C/O[C@@]2(C)Oc3c(C)c(O)c4c(O)c(c(/C=N/N5CCN(C)CC5)c(O)c4c3C2=O)NC(=O)/C(C)=C\\C=C\\[C@H](C)[C@H](O)[C@@H](C)[C@@H](O)[C@@H](C)[C@H](OC(C)=O)[C@@H]1C", "note": "[RIFAMPIN]", "values": [{"measurement": "Activity", "setting": "[1]", "result": "Active"}, {"measurement": "Activity", "setting": "[2]", "result": "Not Active"}]}
{"smiles": "C=CC[C@@]12C[C@H](CC=C(C)C)C(C)(C)[C@@](CC=C)(C(=O)C(C(=O)c3ccccc3)=C1O)C2=O", "values": [{"measurement": "Activity", "setting": "[3]", "result": "inactive"}]}
{"smiles": "C=CC[C@@]12C(=O)C(C(=O)c3ccccc3)=C(O)[C@@](Cc3ccccc3)(C[C@H](Cc3ccccc3)C1(C)C)C2=O", "values": [{"measurement": "Activity", "setting": "[3]", "result": "inactive"}]}
{"smiles": "C=CC[C@@]12C[C@H](CC=C(C)C)C(C)(C)[C@@](CC=C)(C(=O)C(C(C)=O)=C1[O-])C2=O.[Na+]", "values": [{"measurement": "IC50", "setting": "[4]", "result": 6.8, "unit": "µM"}, {"measurement": "Activity", "setting": "[5]", "result": "Active"}, {"measurement": "Activity", "setting": "[6]", "result": "Not Active"}, {"measurement": "fold change (FC)", "setting": "[7]", "result": 5}, {"measurement": "Activity", "setting": "[8]", "result": "Non-Toxic"}, {"measurement": "Activity", "setting": "[9]", "result": "Not Active"}, {"measurement": "Activity", "setting": "[10]", "result": "Non-Toxic"}, {"measurement": "Activity", "setting": "[1]", "result": "Dose-Dependent Effect"}, {"measurement": "Activity", "setting": "[11]", "result": "Not Active"}, {"measurement": "Activity", "setting": "[12]", "result": "Non-Toxic"}, {"measurement": "Activity", "setting": "[13]", "result": "Not Active"}, {"measurement": "Activity", "setting": "[14]", "result": "< 80", "unit": "%"}, {"measurement": "Activity", "setting": "[15]", "result": "Not Active"}, {"measurement": "Activity", "setting": "[16]", "result": "Dose-Dependent Effect"}, {"measurement": "IC50", "setting": "[3]", "result": 38.8, "unit": "µM"}, {"measurement": "Activity", "setting": "[3]", "result": "Active"}, {"measurement": "Activity", "setting": "[17]", "result": "Not Active"}, {"measurement": "Activity", "setting": "[18]", "result": "Not Active"}, {"measurement": "Activity", "setting": "[19]", "result": "Not Active"}, {"measurement": "Activity", "setting": "[20]", "result": "Toxic"}]}
{"smiles": "CC(=O)C1=C(O)[C@@]2(CC=C(C)C)C[C@H](CC=C(C)C)C(C)(C)[C@@](CC=C(C)C)(C1=O)C2=O", "values": [{"measurement": "Activity", "setting": "[3]", "result": "inactive"}]}
{"smiles": "C=CC[C@@]12C(=O)C(C(=O)c3ccccc3)=C(O)[C@@](Cc3ccccc3)(C[C@H](CC=C(C)C)C1(C)C)C2=O", "values": [{"measurement": "Activity", "setting": "[3]", "result": "inactive"}]}
{"smiles": "CC(C)=CC[C@H]1C[C@@]2(CC=C(C)C)C(=O)[C@](CC=C(C)C)(C(=O)C(C(=O)C(C)C)=C2O)C1(C)C", "values": [{"measurement": "Activity", "setting": "[3]", "result": "inactive"}]}
